Assay results taken from the kinase profiling compilation of Christmann-Franck et al. (2016).

Assays:
Experiment in all cases: split-luciferase competition binding
[1] = biological target: RPS6KA2 KD1 (human) (UniProt Q15349); settings: compound 10.0 µM
[2] = biological target: RPS6KA1 KD1 (human) (UniProt Q15418); settings: compound 10.0 µM
[3] = biological target: PRKCE (human) (UniProt Q02156); settings: compound 10.0 µM
[4] = biological target: AURKC (human) (UniProt Q9UQB9); settings: compound 10.0 µM
[5] = biological target: PRKX (human) (UniProt P51817); settings: compound 10.0 µM
Chain of PRKX (human) (P51817 whole entry, looked up): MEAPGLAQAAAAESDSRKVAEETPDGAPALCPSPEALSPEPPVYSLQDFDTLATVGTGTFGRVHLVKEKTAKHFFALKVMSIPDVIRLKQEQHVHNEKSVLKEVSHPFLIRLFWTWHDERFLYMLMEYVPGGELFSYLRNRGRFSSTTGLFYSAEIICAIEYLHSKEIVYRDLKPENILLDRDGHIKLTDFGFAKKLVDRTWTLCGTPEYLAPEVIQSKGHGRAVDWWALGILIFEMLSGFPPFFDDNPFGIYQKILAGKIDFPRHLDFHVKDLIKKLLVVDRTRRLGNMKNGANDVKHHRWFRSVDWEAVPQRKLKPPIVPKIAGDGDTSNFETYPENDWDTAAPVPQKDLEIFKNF

[6] = biological target: PRKCQ (human) (UniProt Q04759); settings: compound 10.0 µM
[7] = biological target: RPS6KA5 KD1 (human) (UniProt O75582); settings: compound 10.0 µM
Chain of RPS6KA5 KD1 (human) (O75582 whole entry, looked up): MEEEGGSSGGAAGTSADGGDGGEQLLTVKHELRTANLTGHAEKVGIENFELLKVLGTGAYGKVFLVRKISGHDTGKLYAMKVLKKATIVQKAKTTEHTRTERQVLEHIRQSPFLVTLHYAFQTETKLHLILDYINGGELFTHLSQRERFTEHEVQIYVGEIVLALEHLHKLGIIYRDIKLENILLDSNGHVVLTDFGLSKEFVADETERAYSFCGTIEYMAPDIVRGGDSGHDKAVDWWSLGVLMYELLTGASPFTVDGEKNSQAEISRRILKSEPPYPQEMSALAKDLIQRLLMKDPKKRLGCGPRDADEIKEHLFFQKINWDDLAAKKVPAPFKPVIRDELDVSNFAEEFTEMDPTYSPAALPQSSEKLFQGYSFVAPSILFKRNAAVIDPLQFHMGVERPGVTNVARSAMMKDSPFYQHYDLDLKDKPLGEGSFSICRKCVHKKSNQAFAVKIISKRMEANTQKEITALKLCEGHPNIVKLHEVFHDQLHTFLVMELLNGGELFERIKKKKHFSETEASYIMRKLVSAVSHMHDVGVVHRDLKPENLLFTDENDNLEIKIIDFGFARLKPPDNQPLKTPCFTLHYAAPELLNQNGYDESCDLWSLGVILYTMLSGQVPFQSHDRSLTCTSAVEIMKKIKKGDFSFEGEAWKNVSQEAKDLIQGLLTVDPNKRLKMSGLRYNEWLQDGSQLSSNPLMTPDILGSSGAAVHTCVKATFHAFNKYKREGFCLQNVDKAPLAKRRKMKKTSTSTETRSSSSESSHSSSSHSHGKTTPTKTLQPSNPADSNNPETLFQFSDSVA

[8] = biological target: PRKCG (human) (UniProt P05129); settings: compound 10.0 µM
[9] = biological target: PRKCD (human) (UniProt Q05655); settings: compound 10.0 µM
Chain of PRKCD (human) (Q05655 whole entry, looked up): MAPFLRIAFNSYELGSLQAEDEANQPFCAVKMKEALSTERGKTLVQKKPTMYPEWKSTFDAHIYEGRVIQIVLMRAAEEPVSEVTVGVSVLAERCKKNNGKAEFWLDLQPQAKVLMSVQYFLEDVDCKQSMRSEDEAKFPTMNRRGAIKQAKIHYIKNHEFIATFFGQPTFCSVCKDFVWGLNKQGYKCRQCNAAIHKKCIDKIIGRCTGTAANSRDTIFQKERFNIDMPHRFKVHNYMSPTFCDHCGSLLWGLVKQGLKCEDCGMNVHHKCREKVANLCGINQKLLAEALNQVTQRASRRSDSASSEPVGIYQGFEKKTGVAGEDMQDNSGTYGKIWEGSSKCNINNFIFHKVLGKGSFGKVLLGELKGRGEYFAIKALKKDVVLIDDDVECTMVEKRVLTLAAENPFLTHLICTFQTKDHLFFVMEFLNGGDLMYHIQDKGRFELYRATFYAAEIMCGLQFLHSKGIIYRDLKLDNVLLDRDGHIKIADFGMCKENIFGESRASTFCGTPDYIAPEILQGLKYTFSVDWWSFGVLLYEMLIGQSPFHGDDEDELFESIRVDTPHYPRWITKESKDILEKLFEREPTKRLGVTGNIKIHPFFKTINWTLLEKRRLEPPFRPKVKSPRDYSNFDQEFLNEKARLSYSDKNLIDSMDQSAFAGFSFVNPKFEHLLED

[10] = biological target: RPS6KA6 KD1 (human) (UniProt Q9UK32); settings: compound 10.0 µM
[11] = biological target: SGK2 (human) (UniProt Q9HBY8); settings: compound 10.0 µM
Chain of SGK2 (human) (Q9HBY8 whole entry, looked up): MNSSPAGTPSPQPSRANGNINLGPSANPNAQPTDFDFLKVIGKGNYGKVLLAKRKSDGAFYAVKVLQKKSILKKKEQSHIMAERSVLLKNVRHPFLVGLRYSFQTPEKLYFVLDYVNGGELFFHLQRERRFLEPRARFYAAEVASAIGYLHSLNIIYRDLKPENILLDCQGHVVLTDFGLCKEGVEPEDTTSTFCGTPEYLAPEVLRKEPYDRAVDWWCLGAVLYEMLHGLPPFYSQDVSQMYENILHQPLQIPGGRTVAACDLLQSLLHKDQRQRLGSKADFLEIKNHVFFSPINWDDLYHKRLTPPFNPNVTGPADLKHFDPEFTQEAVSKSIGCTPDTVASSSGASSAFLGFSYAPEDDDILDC

[12] = biological target: PRKCI (human) (UniProt P41743); settings: compound 10.0 µM
[13] = biological target: AKT3 (human) (UniProt Q9Y243); settings: compound 10.0 µM
[14] = biological target: DMPK (human) (UniProt Q09013); settings: compound 10.0 µM
Chain of DMPK (human) (Q09013 whole entry, looked up): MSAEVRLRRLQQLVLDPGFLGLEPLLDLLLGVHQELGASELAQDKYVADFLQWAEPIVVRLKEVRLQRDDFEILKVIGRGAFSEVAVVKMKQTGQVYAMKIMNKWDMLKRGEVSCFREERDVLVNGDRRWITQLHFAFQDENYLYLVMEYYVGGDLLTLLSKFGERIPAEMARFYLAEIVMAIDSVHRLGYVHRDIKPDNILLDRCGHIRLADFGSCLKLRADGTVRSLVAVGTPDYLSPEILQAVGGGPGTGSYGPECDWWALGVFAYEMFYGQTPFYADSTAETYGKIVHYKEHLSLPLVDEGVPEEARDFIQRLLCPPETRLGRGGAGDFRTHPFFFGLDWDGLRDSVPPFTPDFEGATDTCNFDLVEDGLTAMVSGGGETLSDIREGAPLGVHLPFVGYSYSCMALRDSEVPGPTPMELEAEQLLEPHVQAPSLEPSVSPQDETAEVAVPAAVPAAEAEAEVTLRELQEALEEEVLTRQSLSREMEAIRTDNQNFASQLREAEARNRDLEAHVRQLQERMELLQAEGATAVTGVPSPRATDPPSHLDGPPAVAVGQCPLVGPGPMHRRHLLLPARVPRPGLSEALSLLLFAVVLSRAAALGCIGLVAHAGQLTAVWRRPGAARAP

[15] = biological target: PRKCH (human) (UniProt P24723); settings: compound 10.0 µM
[16] = biological target: RPS6KA3 KD1 (human) (UniProt P51812); settings: compound 10.0 µM
Chain of RPS6KA3 KD1 (human) (P51812 whole entry, looked up): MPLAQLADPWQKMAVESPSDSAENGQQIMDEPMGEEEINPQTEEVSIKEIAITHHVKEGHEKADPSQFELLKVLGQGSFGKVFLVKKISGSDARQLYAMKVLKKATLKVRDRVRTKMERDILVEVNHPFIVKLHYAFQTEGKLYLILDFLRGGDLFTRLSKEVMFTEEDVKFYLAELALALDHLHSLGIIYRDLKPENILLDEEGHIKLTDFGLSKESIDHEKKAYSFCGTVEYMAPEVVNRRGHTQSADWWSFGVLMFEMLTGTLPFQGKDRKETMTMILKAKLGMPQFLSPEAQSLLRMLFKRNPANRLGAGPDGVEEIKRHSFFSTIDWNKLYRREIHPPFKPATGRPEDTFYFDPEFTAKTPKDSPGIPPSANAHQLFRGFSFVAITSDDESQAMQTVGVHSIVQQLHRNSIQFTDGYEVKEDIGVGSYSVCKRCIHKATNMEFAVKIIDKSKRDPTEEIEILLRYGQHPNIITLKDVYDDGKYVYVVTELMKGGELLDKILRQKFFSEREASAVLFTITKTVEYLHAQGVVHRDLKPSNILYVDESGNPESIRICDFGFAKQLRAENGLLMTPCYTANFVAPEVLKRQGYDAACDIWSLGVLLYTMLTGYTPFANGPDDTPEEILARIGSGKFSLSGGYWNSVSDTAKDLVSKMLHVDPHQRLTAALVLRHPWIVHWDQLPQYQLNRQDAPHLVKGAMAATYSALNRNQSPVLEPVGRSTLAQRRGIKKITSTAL

[17] = system: PRKACA (mouse); settings: compound 10.0 µM; accession and sequence are those of the human protein
[18] = biological target: RPS6KA4 KD1 (human) (UniProt O75676); settings: compound 10.0 µM
[19] = biological target: PRKACB (human) (UniProt P22694); settings: compound 10.0 µM
[20] = biological target: STK32B (human) (UniProt Q9NY57); settings: compound 10.0 µM
[21] = biological target: SGK3 (human) (UniProt Q96BR1); settings: compound 10.0 µM
Chain of SGK3 (human) (Q96BR1 whole entry, looked up): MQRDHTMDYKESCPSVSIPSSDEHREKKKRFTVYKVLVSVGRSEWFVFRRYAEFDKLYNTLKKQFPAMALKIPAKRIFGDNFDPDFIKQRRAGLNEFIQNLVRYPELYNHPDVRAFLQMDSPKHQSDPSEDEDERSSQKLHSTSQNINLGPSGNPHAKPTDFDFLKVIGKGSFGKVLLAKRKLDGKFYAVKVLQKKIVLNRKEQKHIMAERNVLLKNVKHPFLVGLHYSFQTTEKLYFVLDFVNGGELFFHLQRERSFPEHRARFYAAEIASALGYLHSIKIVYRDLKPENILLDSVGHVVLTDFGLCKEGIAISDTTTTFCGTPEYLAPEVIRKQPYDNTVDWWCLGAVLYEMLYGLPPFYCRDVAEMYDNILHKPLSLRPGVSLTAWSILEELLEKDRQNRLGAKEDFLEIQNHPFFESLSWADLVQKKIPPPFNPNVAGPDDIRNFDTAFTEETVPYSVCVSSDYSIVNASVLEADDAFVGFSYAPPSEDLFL

[22] = biological target: AURKB (human) (UniProt Q96GD4); settings: compound 10.0 µM
Chain of AURKB (human) (Q96GD4 whole entry, looked up): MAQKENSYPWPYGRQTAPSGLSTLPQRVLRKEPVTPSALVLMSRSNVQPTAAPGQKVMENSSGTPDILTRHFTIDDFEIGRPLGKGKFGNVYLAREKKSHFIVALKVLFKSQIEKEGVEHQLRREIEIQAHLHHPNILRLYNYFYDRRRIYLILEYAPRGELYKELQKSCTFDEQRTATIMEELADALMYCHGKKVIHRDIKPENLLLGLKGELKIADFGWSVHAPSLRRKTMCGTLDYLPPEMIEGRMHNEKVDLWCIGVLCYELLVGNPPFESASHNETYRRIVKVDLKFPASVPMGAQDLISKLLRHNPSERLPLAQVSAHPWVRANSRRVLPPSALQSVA

[23] = biological target: PKN1 (human) (UniProt Q16512); settings: compound 10.0 µM
[24] = biological target: AKT2 (human) (UniProt P31751); settings: compound 10.0 µM
Chain of AKT2 (human) (P31751 whole entry, looked up): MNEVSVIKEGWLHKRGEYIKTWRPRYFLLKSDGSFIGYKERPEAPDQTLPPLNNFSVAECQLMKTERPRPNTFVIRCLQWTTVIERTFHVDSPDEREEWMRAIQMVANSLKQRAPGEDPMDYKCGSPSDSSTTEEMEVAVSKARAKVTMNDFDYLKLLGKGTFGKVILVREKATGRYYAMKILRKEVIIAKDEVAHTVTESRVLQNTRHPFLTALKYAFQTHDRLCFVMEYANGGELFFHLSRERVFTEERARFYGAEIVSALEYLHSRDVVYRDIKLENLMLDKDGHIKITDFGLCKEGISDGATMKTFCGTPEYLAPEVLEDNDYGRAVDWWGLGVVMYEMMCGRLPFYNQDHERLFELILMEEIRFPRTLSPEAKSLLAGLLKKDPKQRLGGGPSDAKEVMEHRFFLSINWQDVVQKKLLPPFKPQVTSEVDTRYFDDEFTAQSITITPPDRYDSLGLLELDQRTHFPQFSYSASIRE

[25] = biological target: AURKA (human) (UniProt O14965); settings: compound 10.0 µM
[26] = biological target: PDPK1 (human) (UniProt O15530); settings: compound 10.0 µM
[27] = biological target: AKT1 (human) (UniProt P31749); settings: compound 10.0 µM

Row | SMILES | inhibition [1] [%] | inhibition [2] [%] | inhibition [3] [%] | inhibition [4] [%] | inhibition [5] [%] | inhibition [6] [%] | inhibition [7] [%] | inhibition [8] [%] | inhibition [9] [%] | inhibition [10] [%] | inhibition [11] [%] | inhibition [12] [%] | inhibition [13] [%] | inhibition [14] [%] | inhibition [15] [%] | inhibition [16] [%] | inhibition [17] [%] | inhibition [18] [%] | inhibition [19] [%] | inhibition [20] [%] | other results
1 | NC(=O)Nc1sc(-c2ccc(F)cc2)cc1C(N)=O | 20 | 44 | 19 | 31 | 9 | 18 | 0 | 0 | 0 | 37 | 0 | 0 | 0 | 0 | 56 | 7 | 4 | 16 | 0 | 0 | inhibition [21]: 0%; inhibition [22]: 56%; inhibition [23]: 0%; inhibition [24]: 0%; inhibition [25]: 1%; inhibition [26]: 0%; inhibition [27]: 0%
2 | N#C/C(=C\c1ccc(O)c(O)c1)C(N)=S | 0 | 0 | 0 | 0 | 0 | 0 | 0 | 0 | 0 | 0 | 0 | 0 | 0 | 0 | 0 | 0 | 4 | 0 | 0 | 1 | inhibition [21]: 0%; inhibition [22]: 0%; inhibition [23]: 5%; inhibition [24]: 0%; inhibition [25]: 1%; inhibition [26]: 0%; inhibition [27]: 0%
3 | COc1cc2ncnc(Nc3ccc(Cl)cc3F)c2cc1OC | 0 | 0 | 2 | 18 | 7 | 7 | 0 | 2 | 0 | 0 | 7 | 0 | 0 | 0 | 11 | 8 | 2 | 2 | 4 | 14 | inhibition [21]: 7%; inhibition [22]: 9%; inhibition [23]: 1%; inhibition [24]: 0%; inhibition [25]: 7%; inhibition [26]: 0%; inhibition [27]: 0%
4 | O=c1cc(N2CCOCC2)nc2c3ccccc3ccn12 | 0 | 0 | 6 | 5 | 0 | 0 | 0 | 0 | 0 | 0 | 0 | 0 | 0 | 0 | 0 | 0 | 0 | 0 | 0 | 0 | inhibition [21]: 0%; inhibition [22]: 0%; inhibition [23]: 0%; inhibition [24]: 0%; inhibition [25]: 0%; inhibition [26]: 0%; inhibition [27]: 0%
5 | CC1=C(O)C(=O)[C@@H]2OC2C1=O (some centres not stated) | 0 | 5 | 0 | 0 | 0 | 0 | 2 | 0 | 0 | 5 | 0 | 0 | 0 | 0 | 7 | 0 | 0 | 0 | 0 | 36 | inhibition [21]: 1%; inhibition [22]: 0%; inhibition [23]: 0%; inhibition [24]: 0%; inhibition [25]: 0%; inhibition [26]: 2%; inhibition [27]: 0%
6 | CC(C)[C@H](CO)Nc1nc(Nc2ccc(C(=O)O)c(Cl)c2)c2ncn(C(C)C)c2n1 | 79 | 81 | 2 | 7 | 3 | 11 | 0 | 0 | 5 | 50 | 0 | 0 | 0 | 0 | 2 | 66 | 21 | 44 | 3 | 9 | inhibition [21]: 3%; inhibition [22]: 15%; inhibition [23]: 0%; inhibition [24]: 0%; inhibition [25]: 3%; inhibition [26]: 0%; inhibition [27]: 0%
